Laboratory results taken from PMC5906549, “Cathelicidin-Derived Antimicrobial Peptides Inhibit Zika Virus Through Direct Inactivation and Interferon Pathway” (Frontiers in Immunology, 2018).
Peptide text beside a SMILES is read from it.

How the values were obtained:
[1] = Cell viability MTS assay in Vero cells; settings: African green monkey
Procedure: Cell viability was examined by the CellTiter 96 ®Aqueous One Solution Cell Proliferation Assay (Promega, Madison, WI, USA). Vero cells and astrocytes were seeded into 96-well tissue culture plates (Fisher Scientific) and treated with fresh growth medium containing different concentrations of each peptide for 2 or 4 days at 37°C. At the experimental end point, MTS [3-(4,5-dimethylthiazol-2-yl)-5-(3-carboxymethoxyphenyl)-2-(4-sulfophenyl)-2H-tetrazolium] was added to the cultures and incubated for 1 h. The absorbance at 490 nm was recorded through BioTek Gen5 data analysis software (Winooski), VT, optical density (OD) values were used as a representation of cell viability.
(A) Vero cells were treated with doses of peptides ranging from 1 to 50 µM. After 24 h, the cultures were washed and treated with same doses of peptides in fresh medium for another 24 h. Cell viability was determined by a colorimetric MTS assay. Results shown are the averages ±SD of experiments performed in triplicate. Data were analyzed by non-linear regression. The EC50 was assessed for each of the antimicrobial peptides. (B) Vero cells were treated with doses of peptides ranging from 0.4 to 10 µM for 2 h then infected with ZIKV at the MOI of 0.5. After 24 h, the cultures were washed and treated with same doses of peptides in fresh medium for another 24 h. ZIKA RNA was detected in total cellular RNA through real-time RT-PCR. Data were normalized to GAPDH and presented as fold change (in log scale) compared with ZIKV group. ** p < 0.01 and *** p < 0.001, as compared with the ZIKV group without the peptide treatment (ANOVA, N = 3).
A, B) Vero cells were treated with 10 µM AMPs for 2 days or 4 days as outlined in the figure. For 4-day treatment, Vero cells were repeatedly treated with 10 µM AMPs at 2-day post-treatment. At the experimental end point, cell viability was determined by a colorimetric MTS assay CellTiter 96® AQueous One Solution Assay (Promega, Madison, WI) based on the manufacture’s instruction. Results were normalized as percentage of cell viability in control astrocytes. CTL, control. * denotes p < 0.05, ** denotes p < 0.01, *** denotes p < 0.001 as compared to the control group without peptide treatment (ANOVA, N = 3).

[2] = tested on: ZIKV strain MR766; experiment: ZIKV RNA in infected Vero cells, peptide pre-treatment (real-time RT-PCR); assay type: cell-based, Zika virus; settings: 2 h before ZIKV MOI 0.5, re-treated at 24 h, 48-h post-infection, RT-PCR normalized to GAPDH, N = 3
Procedure: Human fetal astrocytes were derived from a single-cell isolation process of fetal brain tissues as previously described ([25], [26]). Briefly, dissociated brain tissue was incubated with 0.25% trypsin for 30 min, followed by neutralization with 10% fetal bovine serum (FBS), and further dissociated by trituration. The single-cell suspension was cultured as adherent cells in DMEM/F12 (Thermo Fisher Scientific, Waltham, MA, USA), supplemented with 10% FBS, penicillin (50 units/mL), and streptomycin (50 µg/mL) (Thermo Fisher Scientific). […] Vero cells (ATCC, CCL-81), an African green monkey kidney cell line, were maintained in Dulbecco’s Modified Eagle Medium (DMEM) with 5% FBS. Experiments with ZIKV were performed exclusively inside a BioSafety Level 2 (laboratory). All procedures utilized in this study were approved by the Institutional Biosafety Committee (IBC 16-05-013BL2) and followed biosafety level II practices as shown in National Institutes of health (NIH) Guideline Appendix G-II-B. ZIKV strain MR766 (Uganda, 1947) was obtained from ZeptoMetrix Corp., Buffalo, NY, USA, and propagated in Vero cells. ZIKV infection of the Vero cells and fetal astrocytes was previously characterized ([27]) and all infections in the current studies were at the MOI of 0.5.
Total mRNA was isolated with TRIzol Reagent (Thermo Fisher Scientific) and RNeasy Mini Kit (QIAGEN Inc., Valencia, CA, USA) following the manufacturer’s recommendations. Two real-time RT-PCR methods were used for the current studies. First, SYBR Green-based RT-PCR assay was used to determine intracellular ZIKV RNA in Vero cells. For this assay, reverse transcription was performed using Verso cDNA synthesis Kit (Thermo Fisher Scientific) and 1 µg of total RNA in a 15-µL final volume. The RT-PCR analyses were performed using 7.5-µL SYBR Green PCR Master Mix (Thermo Fisher Scientific) with 0.5-µL cDNA, 1.5-µL H2O, 5.5-µL oligonucleotide primer pairs at 10 µM. […] GG-3. PCR program: 1, 50°C for 2 min; 2, 95°C for 2 min; 3, 95°C for 15 s; 4, specific annealing temperature for 15 s; 5, 72°C for 1 min. Steps 2–4 were repeated 40 times. All samples were amplified in triplicate for analysis. Relative ZIKV RNA levels were determined and standardized with a GAPDH internal control using comparative ΔΔCT method ([35]). Second, TaqMan-based RT-PCR assay was used to determine intracellular ZIKV RNA and other gene expressions in Figures 3–6 and extracellular ZIKV RNA in Figure 3. The TaqMan assay was performed in a StepOne^TM Real-Time PCR system (Thermo Fisher Scientific). Primers used for TaqMan real-time RT-PCR were all from the Thermo Fisher Scientific, which included ZIKV (forward sequence: 5-[…]-3, reverse sequence: 5- […]-3, and probe sequence: 5′-[…]-3), IFN-α2 (Hs00265051_s1), IFN-β1 (Hs01077958_s1), eukaryotic 18-s rRNA (Hs99999901_s1), β-actin (Hs99999903_m1), and GAPDH (Catalog number: 4310884E). Relative ZIKV mRNA levels were determined and standardized with a GAPDH or 18-s rRNA endogenous control using comparative ΔΔCT method ([35]). […] For ZIKV in supernatants, RNA was extracted from the supernatants through TRIzol™ LS Reagent (Thermo Fisher Scientific, 10296028) following the manufacturer’s manual. […] Quantitative genomic RNA from ZIKV (NR-1838DQ, ATCC) was used as a standard to calculate viral copies.

[3] = tested on: ZIKV strain MR766; experiment: ZIKV RNA in astrocytes with recombinant IFN-α or with inhibition of type-I IFN signaling; assay type: cell-based, Zika virus; settings: astrocytes pretreated 2 h with anti-IFN-α neutralizing antibodies (200 neutralizing units/mL) or 1-µM fludarabine, then AMPs 2 h, ZIKV MOI 0.5; RNA at 24 h
Procedure: Total mRNA was isolated with TRIzol Reagent (Thermo Fisher Scientific) and RNeasy Mini Kit (QIAGEN Inc., Valencia, CA, USA) following the manufacturer’s recommendations. Two real-time RT-PCR methods were used for the current studies. First, SYBR Green-based RT-PCR assay was used to determine intracellular ZIKV RNA in Vero cells. For this assay, reverse transcription was performed using Verso cDNA synthesis Kit (Thermo Fisher Scientific) and 1 µg of total RNA in a 15-µL final volume. The RT-PCR analyses were performed using 7.5-µL SYBR Green PCR Master Mix (Thermo Fisher Scientific) with 0.5-µL cDNA, 1.5-µL H2O, 5.5-µL oligonucleotide primer pairs at 10 µM. […] GG-3. PCR program: 1, 50°C for 2 min; 2, 95°C for 2 min; 3, 95°C for 15 s; 4, specific annealing temperature for 15 s; 5, 72°C for 1 min. Steps 2–4 were repeated 40 times. All samples were amplified in triplicate for analysis. Relative ZIKV RNA levels were determined and standardized with a GAPDH internal control using comparative ΔΔCT method ([35]). […] Relative ZIKV mRNA levels were determined and standardized with a GAPDH or 18-s rRNA endogenous control using comparative ΔΔCT method ([35]). […] Quantitative genomic RNA from ZIKV (NR-1838DQ, ATCC) was used as a standard to calculate viral copies.

| SMILES | EC50 at 48 h [1] [µM] | ZIKV RNA compared with untreated controls ([2]; peptide 0.4 µM) | ZIKV RNA compared with untreated controls ([2]; peptide 2 µM) | Effect on GF-17- and BMAP-18-mediated ZIKV inhibition [3] |
| --- | --- | --- | --- | --- |
| CC[C@H](C)[C@H](NC(=O)CN)C(=O)N[C@@H](CCCCN)C(=O)N[C@@H](CCC(=O)O)C(=O)N[C@@H](Cc1ccccc1)C(=O)N[C@@H](CCCCN)C(=O)N[C@@H](CCCNC(=N)N)C(=O)N[C@H](C(=O)N[C@H](C(=O)N[C@@H](CCC(N)=O)C(=O)N[C@@H](CCCNC(=N)N)C(=O)N[C@H](C(=O)N[C@@H](CCCCN)C(=O)N[C@@H](CC(=O)O)C(=O)N[C@@H](Cc1ccccc1)C(=O)N[C@@H](CC(C)C)C(=O)N[C@@H](CCCNC(=N)N)C(=O)N[C@@H](CC(N)=O)C(=O)N[C@@H](CC(C)C)C(=O)N[C@H](C(=O)O)C(C)C)[C@@H](C)CC)C(C)C)[C@@H](C)CC [GI-20] | > 50 | significantly decreased ZIKV RNA | significantly decreased ZIKV RNA |  |
| CC[C@@H](C)[C@@H](NC(=O)CN)C(=O)N[C@H](CCCCN)C(=O)N[C@H](CCC(=O)O)C(=O)N[C@H](Cc1ccccc1)C(=O)N[C@H](CCCCN)C(=O)N[C@H](CCCNC(=N)N)C(=O)N[C@@H](C(=O)N[C@@H](C(=O)N[C@H](CCC(N)=O)C(=O)N[C@H](CCCNC(=N)N)C(=O)N[C@@H](C(=O)N[C@H](CCCCN)C(=O)N[C@H](CC(=O)O)C(=O)N[C@H](Cc1ccccc1)C(=O)N[C@H](CC(C)C)C(=O)N[C@H](CCCNC(=N)N)C(=O)N[C@H](CC(N)=O)C(=O)N[C@H](CC(C)C)C(=O)N[C@@H](C(=O)O)C(C)C)[C@H](C)CC)C(C)C)[C@H](C)CC [GI-20D-form] | 4 | significantly decreased ZIKV RNA | significantly decreased ZIKV RNA |  |
| CC[C@H](C)[C@H](NC(=O)[C@H](CCCCN)NC(=O)[C@H](CCC(=O)O)NC(=O)[C@H](CCCCN)NC(=O)[C@H](CO)NC(=O)[C@H](CCCCN)NC(=O)[C@H](CCCNC(=N)N)NC(=O)[C@H](Cc1ccccc1)NC(=O)[C@H](Cc1ccccc1)NC(=O)[C@H](CC(=O)O)NC(=O)CNC(=O)[C@H](CC(C)C)NC(=O)[C@@H](N)CC(C)C)C(=O)NCC(=O)N[C@@H](CCCCN)C(=O)N[C@@H](CCC(=O)O)C(=O)N[C@@H](Cc1ccccc1)C(=O)N[C@@H](CCCCN)C(=O)N[C@@H](CCCNC(=N)N)C(=O)N[C@H](C(=O)N[C@H](C(=O)N[C@@H](CCC(N)=O)C(=O)N[C@@H](CCCNC(=N)N)C(=O)N[C@H](C(=O)N[C@@H](CCCCN)C(=O)N[C@@H](CC(=O)O)C(=O)N[C@@H](Cc1ccccc1)C(=O)N[C@@H](CC(C)C)C(=O)N[C@@H](CCCNC(=N)N)C(=O)N[C@@H](CC(N)=O)C(=O)N[C@@H](CC(C)C)C(=O)N[C@H](C(=O)N1CCC[C@H]1C(=O)N[C@@H](CCCNC(=N)N)C(=O)N[C@H](C(=O)N[C@@H](CCC(=O)O)C(=O)N[C@@H](CO)C(=O)O)[C@@H](C)O)C(C)C)[C@@H](C)CC)C(C)C)[C@@H](C)CC [LL-37, reference compound] |  | significantly decreased ZIKV RNA | significantly decreased ZIKV RNA |  |
| CC[C@H](C)[C@H](N)C(=O)N[C@@H](CCCCN)C(=O)N[C@@H](Cc1c[nH]c2ccccc12)C(=O)N[C@@H](CCCCN)C(=O)N[C@@H](CCCCN)C(=O)N[C@@H](CC(C)C)C(=O)N[C@@H](CC(C)C)C(=O)N[C@@H](CCCNC(=N)N)C(=O)N[C@@H](C)C(=O)N[C@@H](C)C(=O)N[C@@H](CCCCN)C(=O)N[C@@H](CCCNC(=N)N)C(=O)N[C@H](C(=O)N[C@@H](CC(C)C)C(=O)O)[C@@H](C)CC [DASamP2] (H-IKWKKLLRAAKRIL-OH) | > 50 |  | significantly decreased ZIKV RNA |  |
| Nc1nc(F)nc2c1ncn2[C@@H]1O[C@H](CO)[C@@H](O)[C@@H]1O [fludarabine, Fludarabine] |  |  |  | dampened but did not completely block |
